Measurements taken from patent publication US10231954B2, “Neurodegenerative therapies” (LYTIX BIOPHARMA AS, priority 2014, dated 2019).

Experiments:
Assay type in all cases: biochemical
Conditions in all cases: 100 micromolar inhibitor concentration, 100 is no change
MST3 = MST3 (Homo sapiens, UniProt Q9Y6E0); assay: Kinase profiling MST3
Excerpt: (§1) Any value less that 25 is considered to be highly significant inhibition.

ZAP70 = molecular target: T1, ZAP70 (Homo sapiens, UniProt P43403); assay: Kinase profiling ZAP70
T1 sequence (P43403 1-619): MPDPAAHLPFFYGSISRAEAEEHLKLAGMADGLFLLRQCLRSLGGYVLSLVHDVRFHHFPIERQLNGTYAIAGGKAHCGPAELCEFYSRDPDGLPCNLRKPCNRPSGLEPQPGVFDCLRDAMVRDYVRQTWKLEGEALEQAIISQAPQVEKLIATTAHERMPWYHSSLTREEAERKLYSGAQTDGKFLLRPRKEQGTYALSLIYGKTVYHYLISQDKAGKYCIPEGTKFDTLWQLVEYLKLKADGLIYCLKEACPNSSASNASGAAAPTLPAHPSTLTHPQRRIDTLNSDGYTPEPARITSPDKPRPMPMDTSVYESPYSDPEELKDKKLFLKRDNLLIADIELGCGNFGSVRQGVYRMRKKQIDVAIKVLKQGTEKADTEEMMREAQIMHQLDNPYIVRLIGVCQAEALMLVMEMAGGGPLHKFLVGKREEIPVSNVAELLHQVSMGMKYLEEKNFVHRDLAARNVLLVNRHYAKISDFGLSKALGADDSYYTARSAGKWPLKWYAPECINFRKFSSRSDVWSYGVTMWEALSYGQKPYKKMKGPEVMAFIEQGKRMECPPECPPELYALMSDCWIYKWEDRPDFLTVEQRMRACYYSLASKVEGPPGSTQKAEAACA
Excerpt: as §1

SIK3 = SIK3 (Homo sapiens, UniProt Q9Y2K2); assay: Kinase profiling SIK3
Excerpt: as §1

MARK4 = molecular target: T2, MARK4 (Homo sapiens, UniProt Q96L34); assay: Kinase profiling MARK4
T2 sequence (Q96L34 1-752): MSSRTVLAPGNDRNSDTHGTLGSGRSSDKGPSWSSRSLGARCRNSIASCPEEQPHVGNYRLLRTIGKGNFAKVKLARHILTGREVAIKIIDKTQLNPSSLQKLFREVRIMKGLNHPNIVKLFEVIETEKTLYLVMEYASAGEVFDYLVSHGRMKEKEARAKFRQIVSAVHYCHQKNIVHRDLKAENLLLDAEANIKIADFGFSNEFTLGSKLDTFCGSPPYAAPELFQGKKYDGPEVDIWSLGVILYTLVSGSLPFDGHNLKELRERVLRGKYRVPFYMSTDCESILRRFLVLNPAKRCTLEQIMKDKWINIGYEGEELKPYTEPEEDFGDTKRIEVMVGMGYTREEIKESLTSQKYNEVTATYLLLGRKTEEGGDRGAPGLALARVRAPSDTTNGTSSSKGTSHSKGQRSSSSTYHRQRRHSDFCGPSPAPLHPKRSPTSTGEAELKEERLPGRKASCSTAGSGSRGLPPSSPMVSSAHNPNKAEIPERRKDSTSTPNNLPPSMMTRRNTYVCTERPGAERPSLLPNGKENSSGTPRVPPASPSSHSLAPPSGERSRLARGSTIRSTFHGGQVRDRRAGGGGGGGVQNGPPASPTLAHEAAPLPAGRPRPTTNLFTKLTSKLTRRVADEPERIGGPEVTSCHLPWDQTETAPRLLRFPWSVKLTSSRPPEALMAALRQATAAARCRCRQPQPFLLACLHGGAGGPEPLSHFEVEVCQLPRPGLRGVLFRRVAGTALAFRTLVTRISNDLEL
Excerpt: as §1

TIE2 = TIE2 (Homo sapiens, UniProt Q02763); assay: Kinase profiling TIE2
Excerpt: as §1

NEK2a = molecular target: T3, NEK2a (Homo sapiens, UniProt P51955); assay: Kinase profiling NEK2a
T3 sequence (P51955 1-445): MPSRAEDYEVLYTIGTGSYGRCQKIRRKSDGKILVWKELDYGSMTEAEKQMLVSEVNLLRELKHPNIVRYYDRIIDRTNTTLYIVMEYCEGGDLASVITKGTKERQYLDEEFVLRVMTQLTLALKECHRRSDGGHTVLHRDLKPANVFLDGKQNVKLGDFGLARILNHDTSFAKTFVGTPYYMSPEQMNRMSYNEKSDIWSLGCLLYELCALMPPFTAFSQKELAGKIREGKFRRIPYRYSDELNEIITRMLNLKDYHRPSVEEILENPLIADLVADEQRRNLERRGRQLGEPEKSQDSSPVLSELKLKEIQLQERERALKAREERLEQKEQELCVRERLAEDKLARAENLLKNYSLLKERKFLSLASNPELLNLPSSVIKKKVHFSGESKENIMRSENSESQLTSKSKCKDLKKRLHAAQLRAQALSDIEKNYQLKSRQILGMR
Excerpt: as §1

PRAK = molecular target: T4, PRAK (Homo sapiens, UniProt Q8IW41); assay: Kinase profiling PRAK
T4 sequence (Q8IW41 1-473): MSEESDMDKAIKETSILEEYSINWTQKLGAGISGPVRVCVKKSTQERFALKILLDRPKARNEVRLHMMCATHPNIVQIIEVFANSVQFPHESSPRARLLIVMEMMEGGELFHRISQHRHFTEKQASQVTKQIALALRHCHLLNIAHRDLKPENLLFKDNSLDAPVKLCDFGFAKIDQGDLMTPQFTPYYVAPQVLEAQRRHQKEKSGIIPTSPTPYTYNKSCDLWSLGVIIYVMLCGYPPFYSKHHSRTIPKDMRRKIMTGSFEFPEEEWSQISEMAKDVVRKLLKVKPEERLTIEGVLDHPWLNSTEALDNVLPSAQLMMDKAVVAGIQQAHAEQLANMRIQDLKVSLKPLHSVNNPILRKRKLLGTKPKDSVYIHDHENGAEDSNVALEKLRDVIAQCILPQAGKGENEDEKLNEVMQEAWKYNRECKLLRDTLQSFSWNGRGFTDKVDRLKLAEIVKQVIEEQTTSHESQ
Excerpt: as §1

FGF-R1 = FGF-R1 (Homo sapiens, UniProt P11362); assay: Kinase profiling FGF-R1
Excerpt: as §1

WNK1 = WNK1 (Homo sapiens, UniProt Q9H4A3); assay: Kinase profiling WNK1
Excerpt: as §1

MAP4K5 = MAP4K5 (Homo sapiens, UniProt Q9Y4K4); assay: Kinase profiling MAP4K5
Excerpt: as §1

HIPK3 = HIPK3 (Homo sapiens, UniProt Q9H422); assay: Kinase profiling HIPK3
Excerpt: as §1

MINK1 = MINK1 (Homo sapiens, UniProt Q8N4C8); assay: Kinase profiling MINK1
Excerpt: as §1

MARK1 = MARK1 (Homo sapiens, UniProt Q9P0L2); assay: Kinase profiling MARK1
Excerpt: as §1

Sequence of MARK1 (Q9P0L2 whole entry, species assumed): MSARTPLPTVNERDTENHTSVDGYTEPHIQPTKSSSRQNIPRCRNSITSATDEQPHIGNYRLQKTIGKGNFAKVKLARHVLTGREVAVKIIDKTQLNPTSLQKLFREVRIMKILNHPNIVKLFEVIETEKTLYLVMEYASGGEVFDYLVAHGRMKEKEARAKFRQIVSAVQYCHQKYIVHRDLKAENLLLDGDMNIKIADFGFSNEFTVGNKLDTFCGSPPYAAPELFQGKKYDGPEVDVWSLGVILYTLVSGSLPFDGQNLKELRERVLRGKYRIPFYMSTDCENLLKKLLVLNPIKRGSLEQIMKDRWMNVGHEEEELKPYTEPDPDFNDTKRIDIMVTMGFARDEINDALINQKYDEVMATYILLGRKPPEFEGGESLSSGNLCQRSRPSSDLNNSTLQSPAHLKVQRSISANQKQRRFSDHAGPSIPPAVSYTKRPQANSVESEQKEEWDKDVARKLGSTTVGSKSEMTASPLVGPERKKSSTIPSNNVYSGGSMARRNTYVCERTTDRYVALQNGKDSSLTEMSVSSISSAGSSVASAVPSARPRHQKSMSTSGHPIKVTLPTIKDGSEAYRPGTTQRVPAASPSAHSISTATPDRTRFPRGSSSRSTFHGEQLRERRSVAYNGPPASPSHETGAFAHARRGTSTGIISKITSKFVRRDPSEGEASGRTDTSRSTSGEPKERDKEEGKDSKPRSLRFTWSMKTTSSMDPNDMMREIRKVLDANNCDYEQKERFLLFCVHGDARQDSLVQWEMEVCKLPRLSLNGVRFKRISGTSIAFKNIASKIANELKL
Sequence of MST3 (Q9Y6E0 whole entry, species assumed): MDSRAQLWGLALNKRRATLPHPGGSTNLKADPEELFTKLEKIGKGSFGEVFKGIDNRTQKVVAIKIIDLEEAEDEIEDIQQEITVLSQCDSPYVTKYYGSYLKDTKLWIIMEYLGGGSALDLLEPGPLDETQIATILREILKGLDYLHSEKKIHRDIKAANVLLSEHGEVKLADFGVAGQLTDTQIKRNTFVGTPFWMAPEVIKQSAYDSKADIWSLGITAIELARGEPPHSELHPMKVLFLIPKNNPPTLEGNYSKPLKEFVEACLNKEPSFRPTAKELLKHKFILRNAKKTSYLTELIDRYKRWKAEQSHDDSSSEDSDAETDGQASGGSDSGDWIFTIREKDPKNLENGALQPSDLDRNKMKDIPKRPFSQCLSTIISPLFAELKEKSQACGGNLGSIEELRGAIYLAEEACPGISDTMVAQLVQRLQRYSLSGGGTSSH
Sequence of MINK1 (Q8N4C8 whole entry, species assumed): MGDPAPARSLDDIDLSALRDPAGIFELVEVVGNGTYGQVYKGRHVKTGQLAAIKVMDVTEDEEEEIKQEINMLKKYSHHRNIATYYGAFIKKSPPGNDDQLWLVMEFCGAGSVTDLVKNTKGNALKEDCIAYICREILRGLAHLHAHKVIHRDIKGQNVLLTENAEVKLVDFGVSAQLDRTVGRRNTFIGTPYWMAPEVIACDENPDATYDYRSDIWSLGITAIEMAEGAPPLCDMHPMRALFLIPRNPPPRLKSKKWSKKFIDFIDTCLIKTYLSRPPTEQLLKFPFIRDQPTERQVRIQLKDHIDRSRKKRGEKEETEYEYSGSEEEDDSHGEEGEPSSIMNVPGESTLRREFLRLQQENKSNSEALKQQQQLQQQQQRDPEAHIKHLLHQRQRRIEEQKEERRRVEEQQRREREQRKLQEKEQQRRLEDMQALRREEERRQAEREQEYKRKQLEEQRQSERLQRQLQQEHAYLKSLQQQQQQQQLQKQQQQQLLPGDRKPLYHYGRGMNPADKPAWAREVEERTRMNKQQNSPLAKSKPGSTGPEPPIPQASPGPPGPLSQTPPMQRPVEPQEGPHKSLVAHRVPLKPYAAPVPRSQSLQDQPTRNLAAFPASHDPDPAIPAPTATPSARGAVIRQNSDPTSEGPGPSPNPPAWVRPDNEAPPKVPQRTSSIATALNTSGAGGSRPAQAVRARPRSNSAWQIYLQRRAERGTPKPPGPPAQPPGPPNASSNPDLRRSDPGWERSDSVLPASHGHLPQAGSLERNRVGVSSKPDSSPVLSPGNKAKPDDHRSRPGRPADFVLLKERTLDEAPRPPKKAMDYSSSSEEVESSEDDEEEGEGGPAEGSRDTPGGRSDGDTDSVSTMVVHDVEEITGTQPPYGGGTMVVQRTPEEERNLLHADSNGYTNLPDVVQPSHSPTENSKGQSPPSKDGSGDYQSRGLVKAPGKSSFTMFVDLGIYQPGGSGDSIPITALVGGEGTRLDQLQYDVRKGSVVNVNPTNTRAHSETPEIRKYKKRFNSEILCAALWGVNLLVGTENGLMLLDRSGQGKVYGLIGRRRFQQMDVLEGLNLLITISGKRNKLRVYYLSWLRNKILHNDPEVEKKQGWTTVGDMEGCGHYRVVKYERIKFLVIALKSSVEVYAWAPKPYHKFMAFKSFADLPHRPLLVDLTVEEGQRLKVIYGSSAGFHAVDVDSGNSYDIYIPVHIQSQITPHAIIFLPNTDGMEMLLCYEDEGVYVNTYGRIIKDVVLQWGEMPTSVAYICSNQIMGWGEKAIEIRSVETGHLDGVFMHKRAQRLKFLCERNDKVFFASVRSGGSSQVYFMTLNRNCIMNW
Sequence of WNK1 (Q9H4A3 whole entry, species assumed): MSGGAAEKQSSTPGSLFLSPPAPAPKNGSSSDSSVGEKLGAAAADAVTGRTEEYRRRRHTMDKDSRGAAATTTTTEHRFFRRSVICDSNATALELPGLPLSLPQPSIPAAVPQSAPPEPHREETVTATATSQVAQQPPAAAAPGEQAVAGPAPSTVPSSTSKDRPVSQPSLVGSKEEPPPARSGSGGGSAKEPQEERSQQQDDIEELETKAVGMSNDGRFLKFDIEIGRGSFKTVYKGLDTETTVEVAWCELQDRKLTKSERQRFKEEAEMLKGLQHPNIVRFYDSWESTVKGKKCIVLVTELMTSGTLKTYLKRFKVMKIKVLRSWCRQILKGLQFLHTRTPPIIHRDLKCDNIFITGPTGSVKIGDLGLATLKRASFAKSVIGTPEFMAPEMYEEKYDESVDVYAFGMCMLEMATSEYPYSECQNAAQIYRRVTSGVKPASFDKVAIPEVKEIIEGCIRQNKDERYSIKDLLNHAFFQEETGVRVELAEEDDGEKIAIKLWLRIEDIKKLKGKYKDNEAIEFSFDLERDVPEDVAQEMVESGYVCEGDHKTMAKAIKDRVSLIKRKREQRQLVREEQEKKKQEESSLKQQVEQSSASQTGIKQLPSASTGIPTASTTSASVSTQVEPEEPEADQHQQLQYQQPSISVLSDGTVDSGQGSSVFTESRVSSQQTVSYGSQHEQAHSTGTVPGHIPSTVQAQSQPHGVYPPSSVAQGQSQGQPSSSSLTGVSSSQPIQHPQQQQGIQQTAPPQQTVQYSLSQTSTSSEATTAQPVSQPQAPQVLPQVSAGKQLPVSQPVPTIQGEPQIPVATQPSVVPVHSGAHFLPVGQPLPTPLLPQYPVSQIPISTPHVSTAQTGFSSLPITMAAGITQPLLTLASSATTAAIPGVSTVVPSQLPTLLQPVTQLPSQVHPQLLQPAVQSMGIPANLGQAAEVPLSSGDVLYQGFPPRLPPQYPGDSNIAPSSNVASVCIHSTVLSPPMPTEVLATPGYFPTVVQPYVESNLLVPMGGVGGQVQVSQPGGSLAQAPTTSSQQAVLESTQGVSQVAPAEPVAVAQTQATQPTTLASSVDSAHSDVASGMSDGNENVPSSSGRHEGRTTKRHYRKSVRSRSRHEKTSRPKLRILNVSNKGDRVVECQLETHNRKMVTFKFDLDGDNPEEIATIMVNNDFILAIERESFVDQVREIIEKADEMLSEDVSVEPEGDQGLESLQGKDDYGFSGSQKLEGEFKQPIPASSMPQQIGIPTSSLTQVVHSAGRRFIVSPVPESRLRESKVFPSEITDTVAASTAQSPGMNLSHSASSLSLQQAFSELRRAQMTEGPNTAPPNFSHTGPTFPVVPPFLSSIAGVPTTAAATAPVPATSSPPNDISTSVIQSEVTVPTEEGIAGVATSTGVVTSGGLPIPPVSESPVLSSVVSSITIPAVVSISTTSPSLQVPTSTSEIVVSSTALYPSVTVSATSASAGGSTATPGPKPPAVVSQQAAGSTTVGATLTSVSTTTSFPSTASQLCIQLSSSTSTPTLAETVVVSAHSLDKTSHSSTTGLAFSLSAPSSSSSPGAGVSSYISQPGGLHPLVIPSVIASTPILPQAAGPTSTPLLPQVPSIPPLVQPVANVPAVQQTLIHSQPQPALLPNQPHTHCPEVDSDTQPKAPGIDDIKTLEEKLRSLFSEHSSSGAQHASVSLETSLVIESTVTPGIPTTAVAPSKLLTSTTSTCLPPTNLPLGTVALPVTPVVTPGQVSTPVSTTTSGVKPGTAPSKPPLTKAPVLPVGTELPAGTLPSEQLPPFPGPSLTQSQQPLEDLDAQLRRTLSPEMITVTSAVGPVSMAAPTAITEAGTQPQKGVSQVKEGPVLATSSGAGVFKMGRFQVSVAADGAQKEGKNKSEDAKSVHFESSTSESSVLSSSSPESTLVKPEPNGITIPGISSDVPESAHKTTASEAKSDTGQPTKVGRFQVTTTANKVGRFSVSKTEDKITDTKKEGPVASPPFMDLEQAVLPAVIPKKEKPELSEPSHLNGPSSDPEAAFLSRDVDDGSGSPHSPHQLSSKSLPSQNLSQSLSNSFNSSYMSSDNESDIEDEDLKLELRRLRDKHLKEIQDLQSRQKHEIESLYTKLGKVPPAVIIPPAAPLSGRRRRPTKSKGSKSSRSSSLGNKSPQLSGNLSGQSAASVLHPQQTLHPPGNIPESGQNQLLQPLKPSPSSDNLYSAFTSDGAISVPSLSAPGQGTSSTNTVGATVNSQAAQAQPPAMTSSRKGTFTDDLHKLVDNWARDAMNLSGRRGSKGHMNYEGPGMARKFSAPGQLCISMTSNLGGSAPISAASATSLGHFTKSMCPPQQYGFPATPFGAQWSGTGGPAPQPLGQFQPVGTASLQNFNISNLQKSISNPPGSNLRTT

Structure (SMILES) | residual kinase activity, MST3 (MST3) | residual kinase activity, ZAP70 (ZAP70) | residual kinase activity, SIK3 (SIK3) | residual kinase activity, MARK4 (MARK4) | residual kinase activity, TIE2 (TIE2) | residual kinase activity, NEK2a (NEK2a) | residual kinase activity, PRAK (PRAK) | residual kinase activity, FGF-R1 (FGF-R1) | residual kinase activity, WNK1 (WNK1) | residual kinase activity, MAP4K5 (MAP4K5) | residual kinase activity, HIPK3 (HIPK3) | residual kinase activity, MINK1 (MINK1) | residual kinase activity, MARK1 (MARK1) | other results
CC(=O)Nc1nc2cc(F)ccc2s1 [Compound 03-77] | – | – | – | – | – | – | – | – | – | – | – | – | – | remaining activity at 100 µM (MST3; read-out: residual kinase activity, MST3): 87%; remaining activity at 100 µM (ZAP70; read-out: residual kinase activity, ZAP70): 109%; remaining activity at 100 µM (SIK3; read-out: residual kinase activity, SIK3): 89%; remaining activity at 100 µM (MARK4; read-out: residual kinase activity, MARK4): 86%; remaining activity at 100 µM (TIE2; read-out: residual kinase activity, TIE2): 112%; remaining activity at 100 µM (NEK2a; read-out: residual kinase activity, NEK2a): 90%; remaining activity at 100 µM (PRAK; read-out: residual kinase activity, PRAK): 76%; remaining activity at 100 µM (FGF-R1; read-out: residual kinase activity, FGF-R1): 103%; remaining activity at 100 µM (WNK1; read-out: residual kinase activity, WNK1): 99%; remaining activity at 100 µM (MAP4K5; read-out: residual kinase activity, MAP4K5): 65%; remaining activity at 100 µM (HIPK3; read-out: residual kinase activity, HIPK3): 62%; remaining activity at 100 µM (MINK1; read-out: residual kinase activity, MINK1): 65%; remaining activity at 100 µM (MARK1; read-out: residual kinase activity, MARK1): 80%
O=C(Nc1nc2ccc(O)cc2s1)c1ccncc1 [Compound 08-42] | 77 | 92 | 67 | 82 | 80 | 79 | 74 | 54 | 89 | 67 | 90 | 37 | 75 | –
O=C(Nc1nc2ccc(O)cc2s1)c1cccnc1 [Compound 08-44] | 76 | 79 | 80 | 77 | 81 | 74 | 60 | 56 | 99 | 81 | 45 | 19 | 83 | –
